test system: recombinant NL4-3 virus (Renilla luciferase in nef, Gag P373S; NLRluc) in MT-2 cells; test: HIV cell culture assay (luciferase reporter virus in MT-2 cells); assay type: cell-based; settings: NL43, read-out: WT EC50
Description: Step 2: To a solution of methyl 4-((1R,3aS,5aR,5bR,7aR,11aS,11bR,13aR,13bR)-5a,5b,8,8,11a-pentamethyl-3a-(1-methyl-1H-1,2,4-triazol-5-yl)-1-(prop-1-en-2-yl)-2,3,3a,4,5,5a,5b,6,7,7a,8,11,11a,11b,12,13,13a,13b-octadecahydro-1H-cyclopenta[a]chrysen-9-yl)benzoate (12.7 mg, 0.021 mmol) in THF (1 mL) and MeOH (0.25 mL) was added a solution of 1N lithium hydroxide (0.073 mL, 0.073 mmol). The reaction was stirred at 75° C. After 1 h, the reaction was cooled to rt and purified by reverse phase prep-HPLC using HPLC method 4 and dried in vacuo to give 4-((1R,3aS,5aR,5bR,7aR,11aS,11bR,13aR,13bR)-5a,5b,8,8,11a-pentamethyl-3a-(1-methyl-1H-1,2,4-triazol-5-yl)-1-(prop-1-en-2-yl)-2,3,3a,4,5,5a,5b,6,7,7a,8,11,11a,11b,12,13,13a,13b-octadecahydro-1H-cyclopenta[a]chrysen-9-yl)benzoic acid (9.1 mg, 0.015 mmol, 70.4% yield) as a white solid. LC/MS: m/e 596.3 (M+H)^+, 5.33 min (method 3). ^1H NMR (400 MHz, 1:1 CDCl3:METHANOL-d4) δ 7.89 (d, J=8.3 Hz, 2H), 7.78 (s, 1H), 7.17 (d, J=8.6 Hz, 2H), 5.30-5.22 (m, 1H), 4.77 (d, J=1.7 Hz, 1H), 3.93 (s, 3H), 3.23-3.05 (m, 2H), 2.33 (d, J=13.7 Hz, 1H), 2.11 (dd, J=17.2, 6.2 Hz, 1H), 2.04-1.96 (m, 1H), 1.93-1.80 (m, 2H), 1.72 (s, 3H), 1.68 (d, J=16.4 Hz, 1H), 1.63-1.58 (m, 1H), 1.55-1.30 (m, 10H), 1.28-1.19 (m, 2H), 1.18-1.08 (m, 2H), 1.04 (s, 3H), 0.97 (s, 3H), 0.90 (s, 6H), 0.82 (s, 3H). HIV cell culture assay—MT-2 cells and 293T cells were obtained from the NIH AIDS Research and Reference Reagent Program. MT-2 cells were propagated in RPMI 1640 media supplemented with 10% heat inactivated fetal bovine serum, […]. The 293T cells were propagated in DMEM media supplemented with 10% heat inactivated fetal bovine serum (FBS), 100 units/mL penicillin G and 100 μg/mL streptomycin. The proviral DNA clone of NL4-3 was obtained from the NIH AIDS Research and Reference Reagent Program. A recombinant NL4-3 virus, in which a section of the nef gene from NL4-3 was replaced with the Renilla luciferase gene, was used as a reference virus. In addition, residue Gag P373 was converted to P373S. Briefly, the recombinant virus was prepared by transfection of the altered proviral clone of NL4-3. Transfections were performed in 293T cells using LipofectAMINE PLUS from Invitrogen (Carlsbad, Calif.), according to manufacturer's instruction. The virus was titered in MT-2 cells using luciferase enzyme activity as a marker. Luciferase was quantitated using the Dual Luciferase kit from Promega (Madison, Wis.), with modifications to the manufacturer's protocol. The diluted Passive Lysis solution was pre-mixed with the re-suspended Luciferase Assay Reagent and the re-suspended Stop & Glo Substrate (2:1:1 ratio). Fifty (50) μL of the mixture was added to each aspirated well on assay plates and luciferase activity was measured immediately on a Wallac TriLux (Perkin-Elmer). Antiviral activities of inhibitors toward the recombinant virus were quantified by measuring luciferase activity in cells infected for 4-5 days with NLRluc recombinants in the presence serial dilutions of the inhibitor. Biological Data Key for EC50

Row | Structure (SMILES) | EC50 [nM]
1 | C=C(C)[C@@H]1CC[C@]2(C#Cc3ccccc3C(=O)O)CC[C@]3(C)[C@H](CC[C@@H]4[C@@]5(C)CC=C(c6ccc(C(=O)O)cc6)C(C)(C)[C@@H]5CC[C@]43C)[C@@H]12 [Example 1, 2-(((1R,3aS,5aR,5bR,7aR,11aS,11bR,13aR,13bR)-9-(4-carboxyphenyl)-5a,5b,8,8,11a-pentamethyl-1-(prop-1-en-2-yl)-2,3,3a,4,5,5a,5b,6,7,7a,8,11,11a,11b,12,13,13a,13b-octadecahydro-1H-cyclopenta[a]chrysen-3a-yl)ethynyl)benzoic acid] | 80
2 | C=C(C)[C@@H]1CC[C@]2(C#Cc3ccsc3-c3nnn[nH]3)CC[C@]3(C)[C@H](CC[C@@H]4[C@@]5(C)CC=C(c6ccc(C(=O)O)cc6)C(C)(C)[C@@H]5CC[C@]43C)[C@@H]12 [Example 2, 4-((1R,3aS,5aR,5bR,7aR,11aS,11bR,13 aR,13bR)-3a-((2-(1H-tetrazol-5-yl)thiophen-3-yl)ethynyl)-5a,5b,8,8,11a-pentamethyl-1-(prop-1-en-2-yl)-2,3,3a,4,5,5a,5b,6,7,7a,8,11,11a,11b,12,13,13a,13b-octadecahydro-1H-cyclopenta[a]chrysen-9-yl)benzoic acid] | > 100
3 | C=C(C)[C@@H]1CC[C@]2(c3nnco3)CC[C@]3(C)[C@H](CC[C@@H]4[C@@]5(C)CC=C(c6ccc(C(=O)O)cc6)C(C)(C)[C@@H]5CC[C@]43C)[C@@H]12 [Example 3, 4-((1R,3aS,5aR,5bR,7aR,11aS,11bR,13aR,13bR)-5a,5b,8,8,11a-pentamethyl-3a-(1,3,4-oxadiazol-2-yl)-1-(prop-1-en-2-yl)-2,3,3a,4,5,5a,5b,6,7,7a,8,11,11a,11b,12,13,13a,13b-octadecahydro-1H-cyclopenta[a]chrysen-9-yl)benzoic acid] | < 100
4 | C=C(C)[C@@H]1CC[C@]2(c3nnc(CN(C)C)o3)CC[C@]3(C)[C@H](CC[C@@H]4[C@@]5(C)CC=C(c6ccc(C(=O)O)cc6)C(C)(C)[C@@H]5CC[C@]43C)[C@@H]12 [Example 4, 4-((1R,3aS,5aR,5bR,7aR,11aS,11bR,13 aR,13bR)-3a-(5-((dimethylamino)methyl)-1,3,4-oxadiazol-2-yl)-5a,5b,8,8,11a-pentamethyl-1-(prop-1-en-2-yl)-2,3,3a,4,5,5a,5b,6,7,7a,8,11,11a,11b,12,13,13a,13b-octadecahydro-1H-cyclopenta[a]chrysen-9-yl)benzoic acid] | < 100
5 | C=C(C)[C@@H]1CC[C@]2(c3nc[nH]n3)CC[C@]3(C)[C@H](CC[C@@H]4[C@@]5(C)CC=C(c6ccc(C(=O)O)cc6)C(C)(C)[C@@H]5CC[C@]43C)[C@@H]12 [Example 5, 4-((1R,3aS,5aR,5bR,7aR,11aS,11bR,13aR,13bR)-5a,5b,8,8,11a-pentamethyl-1-(prop-1-en-2-yl)-3a-(1H-1,2,4-triazol-3-yl)-2,3,3a,4,5,5a,5b,6,7,7a,8,11,11a,11b,12,13,13a,13b-octadecahydro-1H-cyclopenta[a]chrysen-9-yl)benzoic acid] | < 100
6 | C=C(C)[C@@H]1CC[C@]2(c3ncn(CCN4CCS(=O)(=O)CC4)n3)CC[C@]3(C)[C@H](CC[C@@H]4[C@@]5(C)CC=C(c6ccc(C(=O)O)cc6)C(C)(C)[C@@H]5CC[C@]43C)[C@@H]12 [Example 6, 4-((1R,3aS,5aR,5bR,7aR,11aS,11bR,13aR,13bR)-3a-(1-(2-(1,1-dioxidothiomorpholino)ethyl)-1H-1,2,4-triazol-3-yl)-5a,5b,8,8,11a-pentamethyl-1-(prop-1-en-2-yl)-2,3,3a,4,5,5a,5b,6,7,7a,8,11,11a,11b,12,13,13a,13b-octadecahydro-1H-cyclopenta[a]chrysen-9-yl)benzoic acid] | < 100
7 | C=C(C)[C@@H]1CC[C@]2(c3ncnn3C)CC[C@]3(C)[C@H](CC[C@@H]4[C@@]5(C)CC=C(c6ccc(C(=O)O)cc6)C(C)(C)[C@@H]5CC[C@]43C)[C@@H]12 [Example 7, 4-((1R,3aS,5aR,5bR,7aR,11aS,11bR,13aR,13bR)-5a,5b,8,8,11a-pentamethyl-3a-(1-methyl-1H-1,2,4-triazol-5-yl)-1-(prop-1-en-2-yl)-2,3,3a,4,5,5a,5b,6,7,7a,8,11,11a,11b,12,13,13a,13b-octadecahydro-1H-cyclopenta[a]chrysen-9-yl)benzoic acid] | < 100

Source: US10047118B2, “C17-aryl substituted betulinic acid analogs” (priority 2014, dated 2018)
